Substitutions are numbered along the chain they refer to.
Experiments:
UCHL1 [1] = target: T1, UCHL1 (Homo sapiens, UniProt P09936); experiment: Thermal shift assay; assay type: binding; settings: Supplementary Fig. 5c
T1 sequence (P09936 1-223): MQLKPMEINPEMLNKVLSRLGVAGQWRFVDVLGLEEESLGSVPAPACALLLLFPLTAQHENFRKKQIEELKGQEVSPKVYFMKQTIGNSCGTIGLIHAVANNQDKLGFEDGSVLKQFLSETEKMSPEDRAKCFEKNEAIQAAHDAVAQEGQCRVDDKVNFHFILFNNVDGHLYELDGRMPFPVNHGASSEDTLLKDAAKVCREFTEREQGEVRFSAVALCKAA
Method: Reactions were performed in white 96-well PCR plates (Bio-Rad). UCHL1 was diluted in thermal shift buffer (1x PBS, 5 mM DTT) to a 4x concentration of 4 µM. The protein was then mixed with 4x compound dissolved in thermal shift buffer in a 1:1 ratio. To each well was added 20 µL of DUB-Inhibitor solution, followed by 1 h incubation time. To each well was then added 20 µL 4x SYPRO Orange in thermal shift buffer. After sealing the plates with a transparent film, thermal denaturation (gradient: 20–90 °C; Increment: 0.3 °C, hold for 5 s before read) was performed and monitored by a Bio-Rad Connect cycler.

UCHL1 in HEK293 cells = test system: T2, UCHL1 in HEK293 cells; experiment: Cellular Ub-probe (HA-Ub-VS) competition, inhibition of cellular UCHL1; assay type: cell-based, human
T2 construct: Western blot analysis of endogenous UCHL1 labeled with HA-Ub-VS after treatment of HEK293 cells; endogenous in cells; host or cells: HEK293
Method: (§1) Proteins were transferred to a polyvinylidene fluoride (PVDF, only experiments in Fig. 4e and Supplementary Fig. 7e, f) or nitrocellulose (all other experiments) membrane using a Trans-Blot Turbo system (Bio-Rad, 1.3 A, 25 V, 10 min). The membranes were blocked with 5% (m/v) nonfat milk in PBS-T buffer and incubated with indicated primary antibodies (anti-UCHL1, 1:1000, Cell Signaling, D3T2E; anti-PARK7, 1:1000, Cell Signaling, D29E5; anti-Tubulin, 1:4000, Sigma, T6199; anti-Hemagglutinin, 1:1000, BioLegend, 16B12; anti-flag, 1:2000, Sigma, F3165; anti-Ubiquitin, 1:1000, Cell Signaling, P4D1; anti-Ubiquitin, 1:300, Santa Cruz, P4D1, sc-8017; anti-UCHL3, 1:1000, Proteintech, 12384-1-AP) overnight. Then the membranes were incubated with the respective secondary antibody (anti-mouse,1:5000, Sigma, NXA931; anti-rabbit, 1:5000, Sigma, GENA934) coupled to horseradish peroxidase. The chemiluminescent reaction was initiated using a Clarity Western ECL substrate (Bio-Rad) and images were taken on a ChemiDoc MP Imaging System (Bio-Rad).
(§2) The total protein concentration was adjusted to 2 mg/ml by diluting each sample with ABP lysis buffer. A final concentration of 1 µM HA-Ub-VS probe was added, followed by incubation for 30 min at 37 °C. The labeling reaction was quenched by the addition of 4x LDS sample buffer. The samples were separated via SDS-PAGE and further analyzed via western blotting as described above.

DUBs in HEK293 lysate = experiment: Activity-based protein profiling in the lysate with Ub-VS competition; assay type: binding, human; settings: 1 µM, 1 h
Method: Cells (4 × 10^6) were seeded in 10 cm dishes and grown to 90% confluency. The medium was aspirated, cells were washed with ice-cold PBS, treated with 600 µL ABP lysis buffer (1% (v/v) IGEPAL, 50 mM Tris, 150 mM NaCl, 5% glycerol, pH 8, cOmplete protease inhibitor cocktail), and incubated on ice for 15 min. The lysed cells were scrapped off the dish, cleared by centrifugation, and the protein concentration was determined via a Bradford assay. […] Each compound was diluted to a 2x concentration in PBS buffer from a 10 mM stock in DMSO (final concentration: 1 µM). Then each compound dilution or a DMSO dilution was mixed with cell lysate and incubated for one hour at room temperature. […] Samples were resolved by SDS-PAGE using a 4–12% Bis-Tris gel (Invitrogen, NuPAGE) with MES SDS running buffer for 50 min at 180 V. Fluorescence was read out using the Alexa564 (λex/em 520–545/577–613 nm, for TAMRA) and Alexa680 (λex/em 650–675/700–730 nm, for the PageRuler Prestained NIR Protein Ladder (Thermo Scientific)) channels on a ChemiDoc MP Imaging System (Bio-Rad).

UCHL1 [2] = target: T1, UCHL1; experiment: kobs/[I] kinetic assay; assay type: biochemical; settings: mean ± SD of independent experiments
Method: Reactions were performed in 384 well plates as above. Compound (5 µL of a 4x stock in reaction buffer H supplemented with 2.5 mM TCEP; varying final concentrations ranging from 78 nM to 200 µM) and Ub-Rhodamine 110 (5 µL of a 4x stock in buffer H supplemented with 2.5 mM TCEP; final concentration: 50 nM) were mixed in a 1:1 ratio.

HEK293 cells = experiment: Cell growth and viability assay (confluency, propidium iodide); assay type: cell-based, human; settings: 1.3 and 5 µM
Method: HEK293 cells (5 × 10^3/well) or U-87 MG cells (5.5 × 10^3/well) were seeded into 96-well dishes. The following day cells were treated with the compounds at varying concentrations and propidium iodide at 20 µg/mL. The plates were immediately transferred to the Incucyte S3. Bright-field and red fluorescent images were automatically captured at 1 or 2 h intervals for 72 h with 10x magnification. The confluency of cells and the number of PI-positive cells was determined using the Incucyte masking program.

UCHL1 [3] = target: T1, UCHL1; experiment: Ub-Rhodamine (Ubiquitin rhodamine cleavage) assay; assay type: biochemical; settings: 1 h preincubation; mean ± SD of independent experiments; read-out: IC50 (UCHL1)
UCHL3 A11I+L168F = target: T3, UCHL3 A11I+L168F (Homo sapiens, UniProt P15374, A11I/L168F); experiment: Ub-Rhodamine (Ubiquitin rhodamine cleavage) assay; assay type: biochemical; settings: Supplementary Fig. 10d; 5 mM DTT in buffer H; read-out: IC50 (UCHL3 A11I+L168F)
T3 sequence (P15374 1-230 A11I/L168F): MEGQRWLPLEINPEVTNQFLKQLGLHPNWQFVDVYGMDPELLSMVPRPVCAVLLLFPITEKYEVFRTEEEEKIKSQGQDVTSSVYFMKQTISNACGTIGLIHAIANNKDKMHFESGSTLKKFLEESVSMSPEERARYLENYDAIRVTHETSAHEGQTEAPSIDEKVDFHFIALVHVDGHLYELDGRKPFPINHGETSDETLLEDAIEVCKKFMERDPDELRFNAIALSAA

UCHL3 L168F = target: T4, UCHL3 L168F (Homo sapiens, UniProt P15374, L168F); experiment: Ub-Rhodamine (Ubiquitin rhodamine cleavage) assay; assay type: biochemical; settings: Supplementary Fig. 10d; 5 mM DTT in buffer H; read-out: IC50 (UCHL3 L168F)
T4 sequence (P15374 1-230 L168F): T3 sequence (P15374 1-230 A11I/L168F) with I11A

UCHL3 = target: T5, UCHL3 (Homo sapiens, UniProt P15374); experiment: Ub-Rhodamine (Ubiquitin rhodamine cleavage) assay; assay type: biochemical; settings: Supplementary Fig. 10d; 5 mM DTT in buffer H; read-out: IC50 (UCHL3 wt)
T5 sequence (P15374 1-230): T3 sequence (P15374 1-230 A11I/L168F) with I11A, F168L

UCHL3 A11I = target: T6, UCHL3 A11I (Homo sapiens, UniProt P15374, A11I); experiment: Ub-Rhodamine (Ubiquitin rhodamine cleavage) assay; assay type: biochemical; settings: Supplementary Fig. 10d; 5 mM DTT in buffer H; read-out: IC50 (UCHL3 A11I)
T6 sequence (P15374 1-230 A11I): T3 sequence (P15374 1-230 A11I/L168F) with F168L

UCHL1 in U-87 MG cells = test system: T7, UCHL1 in U-87 MG cells; experiment: Cellular Ub-probe (HA-Ub-VS) competition, inhibition of cellular UCHL1; assay type: cell-based, human; settings: 1 or 24 h
T7 construct: Western blot analysis of endogenous UCHL1 labeled with HA-Ub-VS after treatment of U-87 MG cells; endogenous in cells; host or cells: U-87 MG
Method: as §1, §2

C#CCn1ccc2c(-c3cccc4c3CCN4C(=O)[C@@H]3CCCN3C#N)ccnc21 [CG173]
protein stabilization of UCHL1 compared with GK13S (UCHL1 [1]): reduced protein stabilization | inhibition of cellular UCHL1 (UCHL1 in HEK293 cells; after 1 h (Supplementary Fig. 5f)): very low degree of inhibition | inhibition of cellular UCHL1 (UCHL1 in HEK293 cells; after 24 h incubation (Supplementary Fig. 5f)): no inhibition of cellular UCHL1 at all | DUB engagement (Ub-VS competitive labeling) (DUBs in HEK293 lysate): Ubiquitin-probe competitive band of approx. 30 kDa | kinact/KI (UCHL1 [2]): 597 ± 209 M⁻¹ s⁻¹ | apoptosis and growth arrest (HEK293 cells): strong induction of apoptosis and growth arrest | IC50 (UCHL1 [3]): 0.043 ± 0.019 µM

C#CCCC(=O)Nc1cccc(/C=C/c2ccc3c(C#N)c(N)[nH]c3c2)c1 [CG041]
DUB engagement (Ub-VS competitive labeling) (DUBs in HEK293 lysate): did not show any covalent-irreversibly bound proteins at all

NC(=O)CI [IAA, iodoacetamide, reference compound]
IC50 (UCHL3 A11I+L168F): 2200 ± 100 µM | IC50 (UCHL3 L168F): 2000 ± 100 µM | IC50 (UCHL3): 1700 ± 100 µM | IC50 (UCHL3 A11I): 1900 ± 100 µM

C#CCN1CCN(CCOc2ccc(C(CCC)NC(=O)/C(C#N)=C/c3cccc(Br)n3)cc2)CC1 (stereo not shown) [MS037]
DUB engagement (Ub-VS competitive labeling) (DUBs in HEK293 lysate): did not show DUB engagement

C#CCCC(=O)NCc1ccc(-c2cccc(Oc3ccnc(C#N)n3)c2)cc1 [CG017]
DUB engagement (Ub-VS competitive labeling) (DUBs in HEK293 lysate): did not show any covalent-irreversibly bound proteins at all

C#CCn1cc(-c2ccc(C(=O)N[C@@H]3CCN(C#N)C3)c(F)c2)cn1 [CG50R]
DUB engagement (Ub-VS competitive labeling) (DUBs in HEK293 lysate): did not show DUB engagement

CC(=O)O/N=C1\C(=O)N(Cc2cc(Cl)ccc2Cl)c2ccc(Cl)cc21 [LDN-57444, reference compound]
inhibition of cellular UCHL1 (UCHL1 in U-87 MG cells): does not lead to inhibition of cellular UCHL1

Reference: paper PMC9549030, “Structural basis for specific inhibition of the deubiquitinase UCHL1” (Nature Communications, 2022)
